Numbers after ± are expanded uncertainties.
Assay: xn = mol fraction of the nth substance listed
Conditions: Vibrating tube method

S [hydrogen sulfide] + CCC
mass density (293.28 K, 16605 kPa, Liquid, x1 = 0.2227): 552.6 ± 0.6 kg/m3 | mass density (293.28 K, 18128 kPa, Liquid, x1 = 0.2227): 555.6 ± 0.7 kg/m3 | mass density (293.28 K, 19790 kPa, Liquid, x1 = 0.2227): 558.8 ± 0.7 kg/m3 | mass density (293.28 K, 21473 kPa, Liquid, x1 = 0.2227): 561.9 ± 0.7 kg/m3 | mass density (293.28 K, 23224 kPa, Liquid, x1 = 0.2227): 564.9 ± 0.8 kg/m3 | mass density (293.28 K, 25127 kPa, Liquid, x1 = 0.2227): 568.1 ± 0.8 kg/m3 | mass density (293.28 K, 27137 kPa, Liquid, x1 = 0.2227): 571.3 ± 0.8 kg/m3 | mass density (293.28 K, 29216 kPa, Liquid, x1 = 0.2227): 574.5 ± 0.9 kg/m3 | mass density (293.28 K, 31365 kPa, Liquid, x1 = 0.2227): 577.6 ± 0.9 kg/m3 | mass density (293.28 K, 33453 kPa, Liquid, x1 = 0.2227): 580.6 ± 1 kg/m3 | mass density (293.28 K, 35831 kPa, Liquid, x1 = 0.2227): 583.8 ± 1 kg/m3 | mass density (313.12 K, 202 kPa, Gas, x1 = 0.2691): 3.3 ± 0.1 kg/m3 | mass density (313.12 K, 382 kPa, Gas, x1 = 0.2691): 6.4 ± 0.1 kg/m3 | mass density (313.12 K, 558 kPa, Gas, x1 = 0.2691): 9.5 ± 0.1 kg/m3 | mass density (313.12 K, 722 kPa, Gas, x1 = 0.2691): 12.6 ± 0.1 kg/m3 | mass density (313.12 K, 878 kPa, Gas, x1 = 0.2691): 15.7 ± 0.1 kg/m3 | mass density (313.12 K, 1040 kPa, Gas, x1 = 0.2691): 19 ± 0.1 kg/m3 | mass density (313.12 K, 1178 kPa, Gas, x1 = 0.2691): 22 ± 0.1 kg/m3 | mass density (313.12 K, 1322 kPa, Gas, x1 = 0.2691): 25.3 ± 0.1 kg/m3 | mass density (313.12 K, 1455 kPa, Gas, x1 = 0.2691): 28.5 ± 0.1 kg/m3 | mass density (313.12 K, 1580 kPa, Gas, x1 = 0.2691): 31.7 ± 0.1 kg/m3 | mass density (313.12 K, 1693 kPa, Gas, x1 = 0.2691): 34.9 ± 0.1 kg/m3 | mass density (313.12 K, 1773 kPa, Gas, x1 = 0.2691): 37.9 ± 0.1 kg/m3 | mass density (313.12 K, 2189 kPa, Liquid, x1 = 0.2691): 491.5 ± 0.3 kg/m3 | mass density (313.12 K, 2787 kPa, Liquid, x1 = 0.2691): 494.6 ± 0.4 kg/m3 | mass density (313.12 K, 3465 kPa, Liquid, x1 = 0.2691): 498 ± 0.4 kg/m3 | mass density (313.12 K, 4173 kPa, Liquid, x1 = 0.2691): 501.2 ± 0.4 kg/m3 | mass density (313.12 K, 4917 kPa, Liquid, x1 = 0.2691): 504.4 ± 0.4 kg/m3 | mass density (313.12 K, 5710 kPa, Liquid, x1 = 0.2691): 507.6 ± 0.4 kg/m3 | mass density (313.12 K, 6516 kPa, Liquid, x1 = 0.2691): 510.6 ± 0.5 kg/m3 | mass density (313.12 K, 7434 kPa, Liquid, x1 = 0.2691): 513.9 ± 0.5 kg/m3 | mass density (313.12 K, 8423 kPa, Liquid, x1 = 0.2691): 517.3 ± 0.5 kg/m3 | mass density (313.12 K, 9421 kPa, Liquid, x1 = 0.2691): 520.5 ± 0.5 kg/m3 | mass density (313.12 K, 10495 kPa, Liquid, x1 = 0.2691): 523.7 ± 0.5 kg/m3 | mass density (313.12 K, 11669 kPa, Liquid, x1 = 0.2691): 527.1 ± 0.6 kg/m3 | mass density (313.12 K, 12933 kPa, Liquid, x1 = 0.2691): 530.5 ± 0.6 kg/m3 | mass density (313.12 K, 14205 kPa, Liquid, x1 = 0.2691): 533.7 ± 0.6 kg/m3 | mass density (313.12 K, 15491 kPa, Liquid, x1 = 0.2691): 536.9 ± 0.6 kg/m3 | mass density (313.12 K, 16847 kPa, Liquid, x1 = 0.2691): 540 ± 0.7 kg/m3 | mass density (313.12 K, 18303 kPa, Liquid, x1 = 0.2691): 543.3 ± 0.7 kg/m3 | mass density (313.12 K, 19787 kPa, Liquid, x1 = 0.2691): 546.4 ± 0.7 kg/m3 | mass density (313.12 K, 21354 kPa, Liquid, x1 = 0.2691): 549.6 ± 0.8 kg/m3 | mass density (313.12 K, 22903 kPa, Liquid, x1 = 0.2691): 552.6 ± 0.8 kg/m3 | mass density (313.12 K, 24556 kPa, Liquid, x1 = 0.2691): 555.7 ± 0.8 kg/m3 | mass density (313.12 K, 26292 kPa, Liquid, x1 = 0.2691): 558.8 ± 0.9 kg/m3 | mass density (313.12 K, 28082 kPa, Liquid, x1 = 0.2691): 561.8 ± 0.9 kg/m3 | mass density (313.12 K, 29973 kPa, Liquid, x1 = 0.2691): 564.9 ± 0.9 kg/m3 | mass density (313.12 K, 32005 kPa, Liquid, x1 = 0.2691): 568.1 ± 1 kg/m3 | mass density (313.12 K, 34062 kPa, Liquid, x1 = 0.2691): 571.2 ± 1 kg/m3 | mass density (313.12 K, 36163 kPa, Liquid, x1 = 0.2691): 574.3 ± 1 kg/m3 | mass density (313.12 K, 38383 kPa, Liquid, x1 = 0.2691): 577.4 ± 1.1 kg/m3 | mass density (333.22 K, 50 kPa, Gas, x1 = 0.2227): 0.8 ± 0.1 kg/m3 | mass density (333.22 K, 260 kPa, Gas, x1 = 0.2227): 4.1 ± 0.1 kg/m3 | mass density (333.22 K, 470 kPa, Gas, x1 = 0.2227): 7.5 ± 0.1 kg/m3 | mass density (333.22 K, 671 kPa, Gas, x1 = 0.2227): 10.9 ± 0.1 kg/m3 | mass density (333.22 K, 838 kPa, Gas, x1 = 0.2227): 13.9 ± 0.1 kg/m3 | mass density (333.22 K, 995 kPa, Gas, x1 = 0.2227): 16.9 ± 0.1 kg/m3 | mass density (333.22 K, 1186 kPa, Gas, x1 = 0.2227): 20.5 ± 0.1 kg/m3 | mass density (333.22 K, 1363 kPa, Gas, x1 = 0.2227): 24.1 ± 0.1 kg/m3 | mass density (333.22 K, 1512 kPa, Gas, x1 = 0.2227): 27.2 ± 0.1 kg/m3 | mass density (333.22 K, 1663 kPa, Gas, x1 = 0.2227): 30.6 ± 0.1 kg/m3 | mass density (333.22 K, 1805 kPa, Gas, x1 = 0.2227): 33.9 ± 0.1 kg/m3 | mass density (333.22 K, 1931 kPa, Gas, x1 = 0.2227): 37 ± 0.1 kg/m3
